The record followed here is patent publication US20060106038A1, “Methods for treating and/or preventing aberrant proliferation of hematopoietic cells” (ICOS CORPORATION, priority 2004, published 2006).

Structures are written as SMILES. Like-named read-outs stand apart in the source and are kept apart here.

Assay [1] concerns myeloid and erythroid colony formation. The assay is described as follows: Methylcellulose clonogenic assay. As to conditions: PI3Kδ selective inhibitor at 10 μM. The assay is classed as cell-based.
For the next assay, the system named is AML cells. The experiment in a line: Cell proliferation assay, [3H]-Thymidine incorporation, AML cells. The assay is classed as cell-based. Conditions: Homo sapiens, 48 h, PI3Kδ selective inhibitor 10 μM, rapamycin 50 ng/ml. How it is done:
Cell proliferation assays were conducted to determine whether PI3K inhibition contributes to AML cell viability. In most PI3K-positive samples tested, the mTOR pathway was activated as assessed by phosphorylation of P70S6K protein on Threonine 389. Thus, proliferation assays were also conducted to determine whether mTOR contributes to AML cell viability. Accordingly, proliferation assays were performed on AML cells with or without the following inhibitor compounds: LY294002, a PI3Kδ selective inhibitor, rapamycin, or a combination of the PI3Kδ selective inhibitor and rapamycin. Cell proliferation was determined by measuring DNA synthesis by [3H]-Thymidine incorporation. Comparative experiments were performed on CD34+ cord blood cells.
For AML cells (obtained as previously described in Example 1), BMMCs were cultured at 3×10^5/ml in alpha medium containing 5% fetal calf serum (FCS) without cytokines for 48 hours, with or without the following inhibitors: LY294002 at 25 μM, PI3Kδ selective inhibitor at 10 μM, rapamycin at 50 ng/ml, or an association of a PI3Kδ selective inhibitor and rapamycin, and incubated in 96-well plates in triplicate. [^3H]-Thymidine was added for a final 6 hour pulse, and the amount of radioactivity incorporated in cells was determined by trichloracetic acid (TCA) precipitation. […] DNA synthesis was measured by [^3H]-Thymidine incorporation after […].

In the case of `O=c1cc(N2CCOCC2)oc2c(-c3ccccc3)cccc12` [LY294002], in assay [1], the inhibition at 10 µM turned out to be 95%.
As to `CO[C@H]1C[C@@H]2CC[C@@H](C)[C@@](O)(O2)C(=O)C(=O)N2CCCC[C@H]2C(=O)O[C@H]([C@H](C)C[C@@H]2CC[C@@H](O)[C@H](OC)C2)CC(=O)[C@H](C)/C=C(\C)[C@@H](O)[C@@H](OC)C(=O)[C@H](C)C[C@H](C)/C=C/C=C/C=C/1C` [rapamycin], the inhibition at 10 µM amounted to 64% in the assay on AML cells (PI3K-positive AML samples, read-out: inhibition of proliferation of leukemic cells) and 29% in the assay on AML cells (representative PI3K-negative AML cell sample, read-out: inhibition of proliferation of leukemic cells (mean values)).
